Reference: patent US20080207593A1, “Antihistamine Combination” (Collegium Pharmaceutical, Inc., priority 2007, published 2008)
Where a name gives a salt, the structure may show the parent alone.

How the values were obtained:
[1] = test system: seasonal allergic rhinitis nasal symptoms (rhinorrhea, nasal itching, sneezing); assay: Proof of concept clinical study: Total Nasal Symptom Score (TNSS); type: in vivo, human; details: TNSS > 4.7 subgroup
Method: An open-label, placebo-controlled parallel-group comparison study was conducted. The protocol used was a 1 week run-in period, with daily placebo (PLC) for all groups, and a second 2 week period for treatment. Study participants were randomized to receive at bedtime (10 pm) during the treatment period, one of the following: PLC only; Immediate Release LOR 10 mg, or Immediate Release CHL 4 mg/Immediate Release LOR 10 mg. Commercially available IR tablets of CHL and LOR were packaged into capsules and used in this study. Participants filled out patient diaries in the morning (8 am) and evening (10 pm, prior to dosing). Reflective and Instantaneous TNSSs were recorded daily. Pittsburgh Sleep Quality Index (PSQI) was scored at the end of the study.
Each symptom (rhinorrhea, nasal itching, sneezing) was scored on the following scale (Max Score=9):
0=absent symptoms (no sign/symptom evident);
1=mild symptoms (signs or symptoms clearly present but with minimal awareness, and easily tolerated);
2=moderate symptoms (definite awareness of signs or symptoms that are bothersome but tolerable); or
3=Severe symptoms (signs or symptoms that are hard to tolerate and cause interference with activities of daily living and/or sleeping).
At each time point (at 8 AM and 10 PM), symptoms were scored for Instantaneous and Reflective scores.
Inclusion criteria: male/female 18-60 years, history of seasonal allergic rhinitis for at least two years, sensitivity to ragweed or locally prevalent allergen, immunotherapy at stable dose, AM Reflective TNSS=3 on at least 5 out of 7 consecutive days during run-in.
Exclusion criteria: subjects with asthma other than mild intermittent asthma, use of antihistamines, other than study medication; use of systemic or topical corticosteroids, use of decongestants or antihistamines within 3 days of Visit 1, nasal cromolyn within 2 weeks of Visit 1, nasal or systemic corticosteroids within 28 days of Visit 1, loratadine within 10 days of Visit 1, history of sleep abnormalities, sinusitis, use of medications causing drowsiness/interfere with sleep, subjects with a known history of alcohol or drug abuse, and other standard exclusions.
2.3 Study Sites. The Study was conducted in Newport News, Va. (20 subjects), Richmond, Va. (20 subjects), New Braunfels, Tex. (25 subjects), San Antonio, Tex. (9 subjects).

allergic rhinitis = details: cited from earlier work
[2] = test system: seasonal allergic rhinitis; details: cited from earlier work
[3] = test system: seasonal allergic rhinitis; details: 4 mg three times per day (12 mg daily) for seven days; cited from earlier work
[4] = Baseline (1 week placebo run-in)
[5] = Change from Baseline to End-of-Treatment
[6] = End-of-Treatment, bedtime dosing

CCOC(=O)N1CCC(=C2c3ccc(Cl)cc3CCc3cccnc32)CC1 [Loratadine]
AM TNSS Instantaneous Score, Max [1, 4]: 7.71 | AM TNSS Instantaneous Score, Mean [1, 4]: 5.58 | AM TNSS Instantaneous Score, Median [1, 4]: 5.43 | AM TNSS Instantaneous Score, Min [1, 4]: 3.71 | AM TNSS Reflective Score, Max [1, 4]: 8.14 | AM TNSS Reflective Score, Mean [1, 4]: 5.91 | AM TNSS Reflective Score, Median [1, 4]: 5.07 | AM TNSS Reflective Score, Min [1, 4]: 5.00 | PM TNSS Instantaneous Score, Max [1, 4]: 8.83 | PM TNSS Instantaneous Score, Mean [1, 4]: 5.70 | PM TNSS Instantaneous Score, Median [1, 4]: 5.21 | PM TNSS Instantaneous Score, Min [1, 4]: 3.86 | PM TNSS Reflective Score, Max [1, 4]: 8.50 | PM TNSS Reflective Score, Mean [1, 4]: 6.10 | PM TNSS Reflective Score, Median [1, 4]: 5.59 | PM TNSS Reflective Score, Min [1, 4]: 4.57 | PM TNSS Reflective Score, Change, Max [1, 5]: 1.21 | PM TNSS Reflective Score, Change, Mean [1, 5]: −0.92 | PM TNSS Reflective Score, Change, Median [1, 5]: −0.21 | PM TNSS Reflective Score, Change, Min [1, 5]: −3.45 | AM TNSS Instantaneous Score, Change, Max ([1]; Change from Baseline to Week 2): 1.21 | AM TNSS Instantaneous Score, Change, Mean ([1]; Change from Baseline to Week 2): −0.74 | AM TNSS Instantaneous Score, Change, Median ([1]; Change from Baseline to Week 2): −0.83 | AM TNSS Instantaneous Score, Change, Min ([1]; Change from Baseline to Week 2): −2.62 | AM TNSS Reflective Score, Change, Max ([1]; Change from Baseline to Week 2): 1.29 | AM TNSS Reflective Score, Change, Mean ([1]; Change from Baseline to Week 2): −0.82 | AM TNSS Reflective Score, Change, Median ([1]; Change from Baseline to Week 2): −0.52 | AM TNSS Reflective Score, Change, Min ([1]; Change from Baseline to Week 2): −2.79 | PM TNSS Instantaneous Score, Change, Max ([1]; Change from Baseline to Week 2): 1.00 | PM TNSS Instantaneous Score, Change, Mean ([1]; Change from Baseline to Week 2): −0.81 | PM TNSS Instantaneous Score, Change, Median ([1]; Change from Baseline to Week 2): −0.21 | PM TNSS Instantaneous Score, Change, Min ([1]; Change from Baseline to Week 2): −3.45 | PM TNSS Reflective Score, Max [1, 6]: 7.71 | PM TNSS Reflective Score, Mean [1, 6]: 5.18 | PM TNSS Reflective Score, Median [1, 6]: 5.29 | PM TNSS Reflective Score, Min [1, 6]: 2.14 | AM TNSS Instantaneous Score, Max ([1]; Week 2, bedtime dosing): 7.36 | AM TNSS Instantaneous Score, Mean ([1]; Week 2, bedtime dosing): 4.83 | AM TNSS Instantaneous Score, Median ([1]; Week 2, bedtime dosing): 5.16 | AM TNSS Instantaneous Score, Min ([1]; Week 2, bedtime dosing): 2.14 | AM TNSS Reflective Score, Max ([1]; Week 2, bedtime dosing): 7.43 | AM TNSS Reflective Score, Mean ([1]; Week 2, bedtime dosing): 5.08 | AM TNSS Reflective Score, Median ([1]; Week 2, bedtime dosing): 5.13 | AM TNSS Reflective Score, Min ([1]; Week 2, bedtime dosing): 2.21 | PM TNSS Instantaneous Score, Max ([1]; Week 2, bedtime dosing): 7.21 | PM TNSS Instantaneous Score, Mean ([1]; Week 2, bedtime dosing): 4.89 | PM TNSS Instantaneous Score, Median ([1]; Week 2, bedtime dosing): 5.32 | PM TNSS Instantaneous Score, Min ([1]; Week 2, bedtime dosing): 2.15 | 24 hour efficacy (allergic rhinitis; 10 mg once a day): lack of 24 hour efficacy | patients with significant sedation (allergic rhinitis; loratadine 40 mg once daily): 34.3% | nocturnal symptoms ([2]; 10 mg QD for four weeks): did not show any improvement | symptom scores ([2]; 10 mg QD, first two week period and four week study overall): statistically significant reduction

CN(C)CCC(c1ccc(Cl)cc1)c1ccccn1 (stereo not drawn) [chlorpheniramine, Chlorpheniramine maleate]
patients reporting moderate or complete relief [3]: 60% | patients reporting sedation [3]: 19%
